Data published in ChEMBL document CHEMBL1201862, “PubChem BioAssay data set” (2004).
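Compound exposure: 48 hours, 5 concentrations, 96-well plates. Abbreviation: GI50, concentration required for 50% inhibition of growth.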 The source made the active and inactive calls. Rule as the data show it: active = GI50 up to about 1.1 µM and inactive = higher.

Assays:
Assay in all cases: DTP human tumour cell line panel, 48 h
HOP-62 = test system: HOP-62
OVCAR-4 = test system: OVCAR-4
SNB-19 = test system: SNB-19
NCI-H522 = test system: NCI-H522
RXF 393 = test system: RXF 393
TK-10 = test system: TK-10
SF-539 = test system: SF-539
SNB-75 = test system: SNB-75
NCI-H23 = test system: NCI-H23
OVCAR-3 = test system: OVCAR-3
COLO 205 = test system: COLO 205
IGROV-1 = test system: IGROV-1
M14 = test system: M14
UACC-62 = test system: UACC-62
MCF7 = test system: MCF7
EKVX = test system: EKVX
MDA-MB-435 = test system: MDA-MB-435
Malme-3M = test system: Malme-3M
SF-268 = test system: SF-268
T47D = test system: T47D

Structure (SMILES)	GI50 (HOP-62)	GI50 (OVCAR-4)	GI50 (SNB-19)	GI50 (NCI-H522)	GI50 (RXF 393)	GI50 (TK-10)	GI50 (SF-539)	GI50 (SNB-75)	GI50 (NCI-H23)	GI50 (OVCAR-3)	GI50 (COLO 205)	GI50 (IGROV-1)	GI50 (M14)	GI50 (UACC-62)	GI50 (MCF7)	GI50 (EKVX)	GI50 (MDA-MB-435)	GI50 (Malme-3M)	GI50 (SF-268)	GI50 (T47D)
Cc1ccc(S(=O)(=O)N[C@@H](Cc2ccccc2)C(=O)CCl)cc1 [TPCK]	17.3 µM (inactive)	4.93 µM (inactive)	16.9 µM (inactive)	9.68 µM (inactive)	1.38 µM (inactive)	17.2 µM (inactive)	16.5 µM (inactive)	14.3 µM (inactive)	13.6 µM (inactive)	15.8 µM (inactive)	17.5 µM (inactive)	14.9 µM (inactive)	13.4 µM (inactive)	13.6 µM (inactive)	10.5 µM (inactive)	17.2 µM (inactive)	14.3 µM (inactive)	14.6 µM (inactive)	15.7 µM (inactive)	
COc1cc(C2SCC(=O)N2c2ccc(Cl)cc2)cc(OC)c1OC (stereo not drawn)	21.1 µM (inactive)	5.81 µM (inactive)	> 100 µM (inactive)	31.8 µM (inactive)	19.1 µM (inactive)	> 100 µM (inactive)	> 100 µM (inactive)	> 100 µM (inactive)	26.2 µM (inactive)	22.2 µM (inactive)	1.94 µM (inactive)	20.7 µM (inactive)	0.266 µM (active)	< 0.0205 µM (active)	5.22 µM (inactive)	3.15 µM (inactive)	0.635 µM (active)	> 100 µM (inactive)	97.5 µM (inactive)	
C/C(=N\NS(=O)(=O)c1ccc(C)cc1)C(CN1CCCCC1)C(c1ccccc1)c1c(O)c2ccccc2oc1=O (stereo not drawn)	> 100 µM (inactive)	> 100 µM (inactive)	> 100 µM (inactive)	80.9 µM (inactive)	39.6 µM (inactive)	> 100 µM (inactive)	> 100 µM (inactive)	> 100 µM (inactive)	> 100 µM (inactive)	> 100 µM (inactive)	> 100 µM (inactive)	> 100 µM (inactive)	> 100 µM (inactive)	> 100 µM (inactive)		> 100 µM (inactive)		> 100 µM (inactive)	> 100 µM (inactive)	
CCOC(=O)c1ccc(N2C(=S)N(C(=O)c3ccccc3)C(=N/c3ccccc3)/C2=N\c2ccccc2)cc1	19.7 µM (inactive)		72.9 µM (inactive)	51.2 µM (inactive)	> 10 µM (inactive)	62.1 µM (inactive)	63.2 µM (inactive)	22.7 µM (inactive)	56.1 µM (inactive)	25.3 µM (inactive)		49.5 µM (inactive)	27.2 µM (inactive)	29.6 µM (inactive)	55.3 µM (inactive)	> 100 µM (inactive)	51.5 µM (inactive)	53.5 µM (inactive)	> 100 µM (inactive)	
O=c1c(Sc2c(O)c3ccccc3c3ccccc3c2=O)c(O)c2ccccc2c2ccccc12	29.5 µM (inactive)	41.8 µM (inactive)	19.3 µM (inactive)	13.4 µM (inactive)	50.7 µM (inactive)	> 100 µM (inactive)	42.3 µM (inactive)	> 100 µM (inactive)	23.7 µM (inactive)	44.6 µM (inactive)	41.6 µM (inactive)	47.2 µM (inactive)	46.6 µM (inactive)	29.2 µM (inactive)		89.3 µM (inactive)		25.2 µM (inactive)	20 µM (inactive)	
COc1ccc(O[C@H](COCc2ccccc2)C[C@@H]2COC(C)(C)O2)cc1	> 100 µM (inactive)	> 100 µM (inactive)	> 100 µM (inactive)	> 100 µM (inactive)	> 100 µM (inactive)	> 100 µM (inactive)	> 100 µM (inactive)	> 100 µM (inactive)	> 100 µM (inactive)	> 100 µM (inactive)	> 100 µM (inactive)	> 100 µM (inactive)	> 100 µM (inactive)	> 100 µM (inactive)	> 100 µM (inactive)	> 100 µM (inactive)	> 100 µM (inactive)	> 100 µM (inactive)	> 100 µM (inactive)	
CCCCCCCCCCCc1c(O)c(=O)c2c(oc3c(=O)c(CCCCCCCCCCC)c(O)c(=O)c3n2-c2ccc(N(C)C)cc2)c1=O	20.7 µM (inactive)	16.5 µM (inactive)	20.8 µM (inactive)	58.3 µM (inactive)	25 µM (inactive)	15.6 µM (inactive)	20.3 µM (inactive)	23.7 µM (inactive)	28.7 µM (inactive)	18.8 µM (inactive)	20 µM (inactive)	24.3 µM (inactive)	16.3 µM (inactive)	18 µM (inactive)		24 µM (inactive)		22.4 µM (inactive)	22.2 µM (inactive)	
O=C(NC1CCN(Cc2ccccc2)CC1)c1ccc(I)cc1	55.6 µM (inactive)	> 100 µM (inactive)	> 100 µM (inactive)	63.5 µM (inactive)	25.2 µM (inactive)	> 100 µM (inactive)	78.3 µM (inactive)		94.2 µM (inactive)	> 100 µM (inactive)	21.8 µM (inactive)	94 µM (inactive)	39 µM (inactive)	59.4 µM (inactive)		> 100 µM (inactive)	33.3 µM (inactive)	1.98 µM (inactive)	63.8 µM (inactive)	> 100 µM (inactive)
CCSc1nc(N2CCCC2)s[s+]1.[O-][Cl+3]([O-])([O-])[O-]	56.5 µM (inactive)	50.8 µM (inactive)	> 100 µM (inactive)	0.346 µM (active)	30.9 µM (inactive)	90.8 µM (inactive)	43 µM (inactive)	24.3 µM (inactive)	46.8 µM (inactive)	3.58 µM (inactive)	2.23 µM (inactive)	4.07 µM (inactive)	25.4 µM (inactive)	0.684 µM (active)	0.167 µM (active)	67.3 µM (inactive)	13.6 µM (inactive)	53.3 µM (inactive)	40.2 µM (inactive)	
CCOC(=O)CCCc1cc(O)c2c(C)c3[nH]c4ccc(Cl)cc4c3c(C)c2n1	20.7 µM (inactive)	23.7 µM (inactive)	23.7 µM (inactive)		12.7 µM (inactive)	21.1 µM (inactive)	14.6 µM (inactive)	25.9 µM (inactive)	50.2 µM (inactive)	17.7 µM (inactive)	41.8 µM (inactive)	30.2 µM (inactive)	34.9 µM (inactive)		15.9 µM (inactive)	79.1 µM (inactive)	18.5 µM (inactive)	24 µM (inactive)	26.2 µM (inactive)	
O=c1c2cc(S(=O)(=O)Nc3c(Cl)cccc3Cl)ccc2ncn1NS(=O)(=O)c1ccc2ccccc2c1	13 µM (inactive)	> 62.5 µM (inactive)	32.6 µM (inactive)	45.4 µM (inactive)		> 62.5 µM (inactive)	> 62.5 µM (inactive)	50.1 µM (inactive)	> 62.5 µM (inactive)	7.46 µM (inactive)	46.6 µM (inactive)	8.67 µM (inactive)	> 62.5 µM (inactive)	33.2 µM (inactive)	> 62.5 µM (inactive)	12.9 µM (inactive)	> 62.5 µM (inactive)	> 62.5 µM (inactive)	> 62.5 µM (inactive)	
COc1ccc(/C=N/c2ccc(-c3nc4ccccc4s3)cc2)cc1OC	10.9 µM (inactive)	34.3 µM (inactive)	54.1 µM (inactive)	16.7 µM (inactive)	20.3 µM (inactive)	28.6 µM (inactive)	34.8 µM (inactive)	25.7 µM (inactive)	27.1 µM (inactive)	13.4 µM (inactive)	19.3 µM (inactive)	25.1 µM (inactive)	35.7 µM (inactive)	20 µM (inactive)		32.9 µM (inactive)	33.3 µM (inactive)	30 µM (inactive)	28 µM (inactive)	17.4 µM (inactive)
O=C(CCCCCCCCC(=O)OCCCn1cc(C(=O)NC(=O)OCc2ccccc2)c(=O)[nH]c1=O)OCCCn1cc(C(=O)NC(=O)OCc2ccccc2)c(=O)[nH]c1=O	> 100 µM (inactive)	> 100 µM (inactive)	> 100 µM (inactive)	> 100 µM (inactive)	> 100 µM (inactive)	> 100 µM (inactive)	> 100 µM (inactive)	54.1 µM (inactive)	> 100 µM (inactive)	> 100 µM (inactive)	> 100 µM (inactive)	> 100 µM (inactive)	> 100 µM (inactive)	> 100 µM (inactive)		> 100 µM (inactive)		> 100 µM (inactive)	> 100 µM (inactive)	
C(=C\N1CCCCC1)/c1nnnn1-c1ccccc1	54 µM (inactive)	33.4 µM (inactive)	32.6 µM (inactive)	47 µM (inactive)	13.9 µM (inactive)	43.1 µM (inactive)	25.3 µM (inactive)	19.6 µM (inactive)	25.2 µM (inactive)	30.5 µM (inactive)	> 100 µM (inactive)	27.7 µM (inactive)	14.1 µM (inactive)	15.6 µM (inactive)		23.5 µM (inactive)	22.2 µM (inactive)	55.5 µM (inactive)	27 µM (inactive)	13.5 µM (inactive)
CC(=O)O/C=C1/C[C@H]2[C@@H]3CCC4CC(C(C)=O)CC[C@]4(C)[C@H]3CC[C@]2(C)C1=O (stereo partly drawn)	> 100 µM (inactive)	> 100 µM (inactive)	53.2 µM (inactive)	> 100 µM (inactive)	> 100 µM (inactive)	> 100 µM (inactive)			81.7 µM (inactive)	33.2 µM (inactive)	> 10 µM (inactive)	88.9 µM (inactive)		> 100 µM (inactive)	38 µM (inactive)	> 100 µM (inactive)	> 100 µM (inactive)	> 100 µM (inactive)	> 100 µM (inactive)	
